# Key:
# Assay type in all cases: biochemical
# IAPP [1] = molecular target: T1, IAPP (Homo sapiens, UniProt P10997); test: Thioflavine T spectroscopy, rate of amyloid fibril formation; settings: ThT 62.5 μM; excitation 440 nm, emission 482 nm
# T1 sequence (P10997 34-70 limits assumed): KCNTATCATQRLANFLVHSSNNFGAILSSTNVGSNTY
# Method: Detection of ThT fluorescence can be used as a sensitive assay for amyloid fibril formation under different conditions. This assay has been used in experiments to determine the effects of compounds of the invention on amyloid fibril formation.
# Human IAPP was dissolved in 40% trifluoroethanol and freeze-dried into conveniently-sized aliquots. IAPP was prepared immediately before the measurements by dissolving in 40% 1,1,1,3,3,3-hexafluoro-2-propanol (HFIP) in water to maintain the peptide in alpha helical conformation and soluble. A stock solution of ThT (2.5 mM) was prepared, 7.9 mg in 10 mL Tris-HCl pH 7.0 and filtered (0.22 μm). Solutions were kept in the dark until use. Fluorescence was examined at 440 nm excitation (slit 5 nm), and emission at 482 nm (slit 10 nm) with stirring. […] of ThT stock (final concentration 62.5 μM) was added to peptide sample and made up to 1 mL in the cuvette. The sample was stirred for 5 min. before taking a reading. Measurements were made at an initial time point (5 min. from sample preparation), at intervals over the next 4-6 h and after overnight incubation at room temperature.
# Aβ(1-40) = molecular target: T2, Aβ(1-40) (Homo sapiens, UniProt P05067); test: Circular dichroism analysis, pre-incubation assay, β-sheet at 218 nm; settings: CD 218 nm, 0.02M Tris pH 7.4
# T2 construct: Prepare a fresh 40 μm solution of Aβ(1-40) in 0.02M Tris, pH 7.4; made in house; host or cells: chemical synthesis (FMOC), HPLC purified
# Method: The assay is conducted as follows:
# Instrument: JASCO J-715 Spectropolarimeter.
# Cell/cuvette: Hellma quartz (QS) with 1.0 mm pathlength Room temperature. Wavelength interval: 250 nm-190 nm.
# Band width: 1.0 nm Response time: 1 sec Scanning speed: 20 nm/min Number of accumulations/spectrum: 5
# 1. Prepare a fresh 40 μm solution of Aβ(1-40) in 0.02M Tris, pH 7.4.
# 2. Prepare a 1 mM solution of test compounds in 0.02M Tris, pH 7.4.
# 3. Combine equal volumes of the Aβ(1-40) and test compound solutions.
# 4. Incubate the mixtures for 19 h.
# 5. Take the CD spectrum using the parameters above.
# 6. Return the mixtures to the incubator and incubate to 43 h.
# 7. Take the CD spectrum using the parameters above. • Inhibition of Aβ40 assembly/aggregation is determined by comparing the amount of b-sheet structure) appearing at lambda=218 nm) obtained in control and in treated sample at each timepoint.
# IAPP [2] = molecular target: T1, IAPP; test: Circular dichroism analysis of IAPP-associated fibril formation (Example 7); parameters: add 10 μL of 10 mg/mL IAPP stock solution (final 100 ng peptide); settings: for Conformation at 24 h / CD at 24 h / Conformation at 48 h / CD at 48 h / Conformation at T0: molar ratio 1:5 peptide:compound; for CD at 24 h / CD at 48 h: more positive = less β-sheet
# Method: Circular dichroism analysis was conducted to confirm the activity of certain therapeutic compounds in preventing or inhibiting IAPP-associated fibril formation in accordance with the present disclosure by determining the presence or absence of […] conformation.
# Instrument: JASCO J-715 Spectropolarimeter
# Cell cuvette: Hellma quartz (QS) with 1.0 mm pathlength
# Wavelength interval: 250 nm-190 nm
# Scanning speed: 20 nm/min
# The assay, a co-incubation procedure, examines the ability of a compound or substance to inhibit the assembly of amyloid fibrils, e.g., to test for the presence of the amyloidotic β-sheet conformation in the presence of soluble IAPP. Samples are run in the presence and absence (i.e., water alone) of buffering agent, which is done to determine if competitive effects are seen with the ionic buffer (usually phosphate).
# Add components used at a molar ratio of 1:10 [ peptide:compound]; add 10 μL of 10 mg/mL IAPP stock solution (final […] peptide) to the aqueous solution containing compound to a final volume of 400 μL. The pH of the final assay solution is measured to ensure there is no fluctuation and the spectrum is accumulated using the parameters as shown above.
# Add desired amount of compound to achieve a 1:10 molar ratio in 10 mM phosphate buffer, pH 7. Add 10 μL of 10 mg/mL IAPP stock solution (final peptide 100 μg) to the phosphate buffered solution containing the compound and bring to a final volume of 400 μL. The pH of the final assay solution is measured to ensure there is no fluctuation and the spectrum is accumulated using the parameters as shown above.
# In both assays, a control sample is run with each test group. This control contains peptide only in water or buffer at a similar final volume of 400 μl. Spectra for the control are collected initially (first run) and at the end of the test (final run) to ensure that the peptide has not undergone extensive aggregation during the course of the assay. Spectra for the controls are used to compare with the measurements obtained with the treated samples.
# Make fresh 1 mg/mL stock solution of IAPP in 10 mM phosphate buffer, pH 7. Add desired amount of compound to achieve a 1:10 molar ratio in 10 mM phosphate buffer, pH 7. Incubate for 3 days at room temperature. Make up to final volume of 400 μL with 10 mM phosphate buffer, pH 7. The pH of the final assay solution is measured to ensure there is no fluctuation and the spectrum is accumulated using the parameters as shown above.
# A similar control is run for comparative purposes.
# Plots of the spectra (control and treated) are individually assembled and the changes in ellipticity at 218 nm are examined. This minimum is directly correlated with the amount of β-sheet present in the sample. Changes in either a positive or negative direction are noted and a relative value (“active” or “not active”) assigned to the compound as a measure of activity. In a subsequent experiment with the compounds at a molar ratio of 1:5 [ peptide:compound], the degree of randomness was noted, an indication of the ability of the compounds to prevent amyloid aggregation. A more positive number indicates less β-sheet formation. The ability of a compound to prevent β-sheet formation for at least 24 h is important, as the non-aggregated amyloid fibrils will be excreted in the soluble form. In the control noted below, the decrease in CD (mdegs) may indicate that some of the peptide is aggregating under these conditions.
# Aβ42 peptide = molecular target: T3, Aβ42 peptide (Homo sapiens, UniProt P05067); test: ELISA solubility assay (Aβ fibril formation); settings: 1:10 peptide:compound, overnight at room temperature, 10 mM phosphate buffer
# T3 construct: Stock solution of Aβ42 or Aβ40 peptide at 5 mg/ml in distilled water, pH 7; made in house; host or cells: chemical synthesis (FMOC), HPLC purified
# Method: The assay was conducted as follows. Stock solution of Aβ42 peptide at 5 mg/ml in distilled water, pH 7, and stock solutions of each test compound at 1 mg/ml in distilled water, pH 7 were prepared. • 1. A 10 μg sample of peptide was mixed with compound at a molar ratio of 1:10 [ peptide:compound] in 500 μl of 10 mM phosphate buffer. Control samples contained peptide only. • 2. The mixture was incubated overnight at room temperature without agitation. • 3. The incubated mixture was centrifuged at 14,000 rpm (Eppendorf microfuge) for 5 minutes to separate the soluble peptide. • 4. 400 μl aliquots of supernatant were removed for ELISA assay.
# ELISA • 1. 100 μl of prepared samples were coated in 96 wells NUNC microplates (each sample tested in triplicate) • 2. The plate was incubated at 37° C. for 3 hours, then at 4° C. overnight. • 3. The wells were washed twice with 0.05% Tween 20 in phosphate buffered saline. • 4. 250 μl of 3% skim milk powder in PBS was used to block non-specific binding to the wells (at 37° C. for 1.5 hours) • 5. The wells were washed with 0.05% Tween 20/PBS twice. • 6. A 100 μl aliquot of diluted (final dilution 1:100 in PBS) mouse monoclonal anti-Aβ antibody (purchased from DAKO recognizing the N-terminal residues 1-10) was added to each well. The antibody was then incubated at 37 C for 2 Hours. • 7. The wells were washed with 0.05% Tween 20/PBS six times (5 min/wash). • 8. Visualization was performed using 100 μl of diluted goat anti-mouse IgG (H^+ L) conjugated with alkaline phosphatase (purchased from BioRad) was added to each well. The plate was incubated at 37° C. for 1 hour. • 9. The wells were washed with 0.05% Tween 20/PBS six times (5 min/wash). • 10. The color reaction was developed using 100 μl of alkaline phosphatase substrate (purchased from BioRad) which was added to each well. • 11. The relative amounts of Aβ were obtained by measuring the OD of the sample at 405 nm using a standard ELISA plate reader.
# Compounds were characterized as “active” if 40-50% of Aβ42 remained in the supernatant.
# T2 sequence (P05067 672-711 limits assumed): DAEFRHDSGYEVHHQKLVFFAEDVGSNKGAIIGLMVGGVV
# T3 sequence (P05067 672-713 limits assumed): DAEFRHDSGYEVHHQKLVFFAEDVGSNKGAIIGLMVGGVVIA
Compound,IAPP-associated fibril assembly (ThT fluorescence) (IAPP [1]),"relative inhibition compared to Aβ alone, incubation time 0 h (Aβ(1-40))","relative inhibition compared to Aβ alone, incubation time 19 h (Aβ(1-40))","relative inhibition compared to Aβ alone, incubation time 43 h (Aβ(1-40))",Conformation at 24 h (IAPP [2]),CD at 24 h (IAPP [2]),Conformation at 48 h (IAPP [2]),CD at 48 h (IAPP [2]),Conformation at T0 (IAPP [2]),Activity (change in ellipticity at 218 nm) (IAPP [2]; molar ratio 1:10 peptide:compound),Aβ42 remaining in the supernatant (activity class) (Aβ42 peptide)
"NCC(O)CS(=O)(=O)O (stereo not drawn) [LVXVI, 3-amino-2-hydroxy-1-propanesulfonic acid]",inhibit or prevent IAPP-associated fibril assembly,+ (+: 0-25%),+++ (+++: 50-75%),++ (++: 25-50%),–,–,–,–,–,–,–
"CN(C)CCCS(=O)(=O)O [LVXVII, 3-dimethylamino-1-propanesulfonic acid]",inhibit or prevent IAPP-associated fibril assembly,–,–,–,β,(−1.7) mdegs,β,−1.5 mdegs,Random,–,–
"Cl.c1ccc2c(c1)CCNC2 [LVIX, 1,2,3,4-tetrahydroisoquinoline, hydrochloride]",inhibit or prevent IAPP-associated fibril assembly,–,–,–,β,(−1.5) mdegs,β,−1.3 mdegs,Random,Active,–
"C=CC(=O)NC(C)(C)CS(=O)(=O)O [XXI, 2-acrylamido-2-methyl-1-propanesulfonic acid]",–,–,–,–,–,–,–,–,–,–,Active
"CC12CC3CC(C)(C1)CC(NCCCS(=O)(=O)O)(C3)C2 [XXIV, 3-[(−3,5-dimethyl-1-adamantyl)-amino]-1-propanesulfonic acid]",–,–,–,–,–,–,–,–,–,–,Active
"Cc1ccc2nc(-c3ccc(N=NNc4ccc(-c5nc6ccc(C)c(S(=O)(=O)[O-])c6s5)cc4)cc3)sc2c1S(=O)(=O)[O-].[Na+].[Na+] [XXVIII, Thiazol Yellow G]",–,–,–,–,–,–,–,–,–,–,Active
"O=S(=O)(O)CCCNCCCO [LVX, 3-(3-hydroxy-1-propyl)amino-1-propanesulfonic acid]",inhibit or prevent IAPP-associated fibril assembly,–,–,–,Random,–,β,−1.7 mdegs,Random,–,–
"O=S(=O)(O)CCCN1CC=C(c2ccccc2)CC1 [LVXV, 4-Phenyl-1-(3′-sulfopropyl)-1,2,3,6-tetrahydropyridine]",inhibit or prevent IAPP-associated fibril assembly,+ (+: 0-25%),++++ (++++: 75-100%),++ (++: 25-50%),Random,–,β,−1.8 mdegs,Random,–,–
"COc1ccc(S(=O)(=O)O)c2cccnc12 [LVXIV, 8-methoxyquinoline-5-sulfonic acid]",inhibit or prevent IAPP-associated fibril assembly,–,–,–,β,(−1.3) mdegs,β,−0.8 mdegs,Random,–,–

# — US20110281951A1, “Compositions and methods for treating amyloidosis” (priority 1999, published 2011)
